Assay results reported in the NIST ThermoML archive (doi:10.1016/j.fluid.2013.01.011).
Numbers after ± are expanded uncertainties.

Experiments:
[1] = 298.15 K; 101.33 kPa; Liquid; Vibrating tube method
[2] = excess molar enthalpy (molar enthalpy of mixing); xn = mol fraction of the nth substance listed; details: 298.15 K, 101 kPa, Liquid, Calvet calorimetry

With `CCCCNCCCC` [dibutylamine] as the compound, how does the mass density [1] read?
The mass density was 755.528 ± 0.16 kg/m3.

Which results are given for `CCCNCCC` [dipropylamine] + CCC(C)=O?
excess molar enthalpy ([2]; x1 = 0.1042): 0.037 ± 0.000956 kcal/mol; excess molar enthalpy ([2]; x1 = 0.1978): 0.0605 ± 0.00143 kcal/mol; excess molar enthalpy ([2]; x1 = 0.3016): 0.0798 ± 0.00167 kcal/mol; excess molar enthalpy ([2]; x1 = 0.3852): 0.0884 ± 0.00191 kcal/mol; excess molar enthalpy ([2]; x1 = 0.495): 0.0949 ± 0.00215 kcal/mol; excess molar enthalpy ([2]; x1 = 0.5459): 0.0946 ± 0.00215 kcal/mol; excess molar enthalpy ([2]; x1 = 0.5908): 0.0937 ± 0.00215 kcal/mol; excess molar enthalpy ([2]; x1 = 0.6833): 0.0851 ± 0.00191 kcal/mol; excess molar enthalpy ([2]; x1 = 0.7647): 0.0715 ± 0.00167 kcal/mol; excess molar enthalpy ([2]; x1 = 0.8559): 0.0488 ± 0.0012 kcal/mol

With `CCCCNCCCC` [dibutylamine] + CCCC(C)=O as the compound, how does the excess molar enthalpy ([2]; x1 = 0.1111) read?
Its excess molar enthalpy is 0.0406 ± 0.000956 kcal/mol.

And the excess molar enthalpy ([2]; x1 = 0.2106)?
The excess molar enthalpy was 0.0684 ± 0.00143 kcal/mol.

And the excess molar enthalpy ([2]; x1 = 0.3072)?
The excess molar enthalpy was 0.0908 ± 0.00191 kcal/mol.

What about the excess molar enthalpy ([2]; x1 = 0.3973) of the same compound?
The excess molar enthalpy was 0.102 ± 0.00215 kcal/mol.

And the excess molar enthalpy ([2]; x1 = 0.4942)?
Its excess molar enthalpy is 0.108 ± 0.00239 kcal/mol.

And the excess molar enthalpy ([2]; x1 = 0.6052)?
Its excess molar enthalpy is 0.104 ± 0.00239 kcal/mol.

And the excess molar enthalpy ([2]; x1 = 0.6999)?
Its excess molar enthalpy is 0.0937 ± 0.00215 kcal/mol.

What about the excess molar enthalpy ([2]; x1 = 0.7881) of the same compound?
Its excess molar enthalpy is 0.0762 ± 0.00167 kcal/mol.

What about the excess molar enthalpy ([2]; x1 = 0.8848) of the same compound?
Its excess molar enthalpy is 0.0485 ± 0.0012 kcal/mol.

Which mass density [1] does the source give for `CCCC(C)=O` [pentan-2-one] here?
The mass density was 801.522 ± 0.24 kg/m3.

With `CCC(C)=O` [butanone] as the compound, how does the mass density [1] read?
Its mass density is 799.969 ± 0.15 kg/m3.

For `CCCCNCCCC` [dibutylamine] + CC(C)=O, which excess molar enthalpy ([2]; x1 = 0.1101) is on record?
The excess molar enthalpy was 0.106 ± 0.00239 kcal/mol.

What about the excess molar enthalpy ([2]; x1 = 0.2103) of the same compound?
Its excess molar enthalpy is 0.165 ± 0.00359 kcal/mol.

And the excess molar enthalpy ([2]; x1 = 0.2999)?
Its excess molar enthalpy is 0.204 ± 0.0043 kcal/mol.

What about the excess molar enthalpy ([2]; x1 = 0.398) of the same compound?
Its excess molar enthalpy is 0.22 ± 0.00478 kcal/mol.

And the excess molar enthalpy ([2]; x1 = 0.4977)?
Its excess molar enthalpy is 0.224 ± 0.00478 kcal/mol.

And the excess molar enthalpy ([2]; x1 = 0.6088)?
The excess molar enthalpy was 0.206 ± 0.00454 kcal/mol.

What about the excess molar enthalpy ([2]; x1 = 0.6999) of the same compound?
The excess molar enthalpy was 0.181 ± 0.00382 kcal/mol.

And the excess molar enthalpy ([2]; x1 = 0.79)?
Its excess molar enthalpy is 0.143 ± 0.00311 kcal/mol.

What about the excess molar enthalpy ([2]; x1 = 0.8913) of the same compound?
The excess molar enthalpy was 0.0827 ± 0.00191 kcal/mol.

For `CCCCCC(C)=O` [2-heptanone], which mass density [1] is on record?
The mass density was 811.162 ± 0.24 kg/m3.

Which mass density [1] does the source give for `CC(C)=O` [acetone] here?
The mass density was 785.094 ± 0.13 kg/m3.

What does the source list for `CCCNCCC` [dipropylamine] + CCCC(C)=O?
excess molar enthalpy ([2]; x1 = 0.1056): 0.0208 ± 0.000478 kcal/mol; excess molar enthalpy ([2]; x1 = 0.1981): 0.0368 ± 0.000956 kcal/mol; excess molar enthalpy ([2]; x1 = 0.3098): 0.0519 ± 0.0012 kcal/mol; excess molar enthalpy ([2]; x1 = 0.3988): 0.0621 ± 0.00143 kcal/mol; excess molar enthalpy ([2]; x1 = 0.5023): 0.0672 ± 0.00143 kcal/mol; excess molar enthalpy ([2]; x1 = 0.5922): 0.0679 ± 0.00143 kcal/mol; excess molar enthalpy ([2]; x1 = 0.6821): 0.0638 ± 0.00143 kcal/mol; excess molar enthalpy ([2]; x1 = 0.781): 0.0545 ± 0.0012 kcal/mol; excess molar enthalpy ([2]; x1 = 0.8693): 0.0382 ± 0.000956 kcal/mol

For `CCCCNCCCC` [dibutylamine] + CCCCCC(C)=O, which excess molar enthalpy ([2]; x1 = 0.1114) is on record?
The excess molar enthalpy was 0.0206 ± 0.000478 kcal/mol.

And the excess molar enthalpy ([2]; x1 = 0.2189)?
Its excess molar enthalpy is 0.0392 ± 0.000956 kcal/mol.

And the excess molar enthalpy ([2]; x1 = 0.3057)?
Its excess molar enthalpy is 0.0519 ± 0.0012 kcal/mol.

What about the excess molar enthalpy ([2]; x1 = 0.4038) of the same compound?
Its excess molar enthalpy is 0.0607 ± 0.00143 kcal/mol.

And the excess molar enthalpy ([2]; x1 = 0.5087)?
Its excess molar enthalpy is 0.0664 ± 0.00143 kcal/mol.

What about the excess molar enthalpy ([2]; x1 = 0.5962) of the same compound?
Its excess molar enthalpy is 0.0664 ± 0.00143 kcal/mol.

What about the excess molar enthalpy ([2]; x1 = 0.7053) of the same compound?
Its excess molar enthalpy is 0.0612 ± 0.00143 kcal/mol.

What about the excess molar enthalpy ([2]; x1 = 0.8017) of the same compound?
The excess molar enthalpy was 0.0497 ± 0.0012 kcal/mol.

And the excess molar enthalpy ([2]; x1 = 0.8891)?
The excess molar enthalpy was 0.033 ± 0.000717 kcal/mol.

For `CCCNCCC` [dipropylamine] + CC(C)=O, which excess molar enthalpy ([2]; x1 = 0.1063) is on record?
The excess molar enthalpy was 0.0652 ± 0.00143 kcal/mol.

What about the excess molar enthalpy ([2]; x1 = 0.2076) of the same compound?
Its excess molar enthalpy is 0.113 ± 0.00239 kcal/mol.

And the excess molar enthalpy ([2]; x1 = 0.3036)?
The excess molar enthalpy was 0.14 ± 0.00311 kcal/mol.

What about the excess molar enthalpy ([2]; x1 = 0.3982) of the same compound?
Its excess molar enthalpy is 0.151 ± 0.00335 kcal/mol.

What about the excess molar enthalpy ([2]; x1 = 0.4932) of the same compound?
Its excess molar enthalpy is 0.153 ± 0.00335 kcal/mol.

And the excess molar enthalpy ([2]; x1 = 0.5821)?
The excess molar enthalpy was 0.147 ± 0.00311 kcal/mol.

What about the excess molar enthalpy ([2]; x1 = 0.6773) of the same compound?
Its excess molar enthalpy is 0.129 ± 0.00287 kcal/mol.

What about the excess molar enthalpy ([2]; x1 = 0.7652) of the same compound?
Its excess molar enthalpy is 0.104 ± 0.00215 kcal/mol.

What about the excess molar enthalpy ([2]; x1 = 0.8488) of the same compound?
The excess molar enthalpy was 0.0707 ± 0.00167 kcal/mol.

Which excess molar enthalpy ([2]; x1 = 0.1145) does the source give for `CCCNCCC` [dipropylamine] + CCCCCC(C)=O here?
The excess molar enthalpy was 0.0112 ± 0.000478 kcal/mol.

What about the excess molar enthalpy ([2]; x1 = 0.212) of the same compound?
The excess molar enthalpy was 0.021 ± 0.000478 kcal/mol.

What about the excess molar enthalpy ([2]; x1 = 0.3072) of the same compound?
Its excess molar enthalpy is 0.0282 ± 0.000717 kcal/mol.

What about the excess molar enthalpy ([2]; x1 = 0.4034) of the same compound?
Its excess molar enthalpy is 0.0342 ± 0.000717 kcal/mol.

And the excess molar enthalpy ([2]; x1 = 0.4993)?
The excess molar enthalpy was 0.0387 ± 0.000956 kcal/mol.

What about the excess molar enthalpy ([2]; x1 = 0.6017) of the same compound?
Its excess molar enthalpy is 0.0406 ± 0.000956 kcal/mol.

And the excess molar enthalpy ([2]; x1 = 0.6872)?
Its excess molar enthalpy is 0.038 ± 0.000956 kcal/mol.

What about the excess molar enthalpy ([2]; x1 = 0.7868) of the same compound?
Its excess molar enthalpy is 0.0327 ± 0.000717 kcal/mol.

And the excess molar enthalpy ([2]; x1 = 0.8796)?
Its excess molar enthalpy is 0.0229 ± 0.000478 kcal/mol.

Which mass density [1] does the source give for `CCCNCCC` [dipropylamine] here?
Its mass density is 733.723 ± 0.25 kg/m3.

Which excess molar enthalpy ([2]; x1 = 0.1142) does the source give for `CCCCNCCCC` [dibutylamine] + CCC(C)=O here?
The excess molar enthalpy was 0.0655 ± 0.00143 kcal/mol.

And the excess molar enthalpy ([2]; x1 = 0.2078)?
Its excess molar enthalpy is 0.102 ± 0.00215 kcal/mol.

And the excess molar enthalpy ([2]; x1 = 0.2985)?
The excess molar enthalpy was 0.128 ± 0.00287 kcal/mol.

What about the excess molar enthalpy ([2]; x1 = 0.3978) of the same compound?
The excess molar enthalpy was 0.144 ± 0.00311 kcal/mol.

And the excess molar enthalpy ([2]; x1 = 0.4956)?
The excess molar enthalpy was 0.148 ± 0.00311 kcal/mol.

What about the excess molar enthalpy ([2]; x1 = 0.6001) of the same compound?
Its excess molar enthalpy is 0.142 ± 0.00311 kcal/mol.

What about the excess molar enthalpy ([2]; x1 = 0.693) of the same compound?
Its excess molar enthalpy is 0.126 ± 0.00263 kcal/mol.

And the excess molar enthalpy ([2]; x1 = 0.7846)?
Its excess molar enthalpy is 0.0997 ± 0.00215 kcal/mol.

What about the excess molar enthalpy ([2]; x1 = 0.8802) of the same compound?
The excess molar enthalpy was 0.0645 ± 0.00143 kcal/mol.
